Experimental data as given in article PMC3766423 (Cancer research, 2013).

Molecular target: WRN helicase (Werner syndrome protein) (Homo sapiens, UniProt Q14191)
Test: in vitro WRN helicase
Type: biochemical

Chain of WRN helicase (Werner syndrome protein) (Q14191 2-1432): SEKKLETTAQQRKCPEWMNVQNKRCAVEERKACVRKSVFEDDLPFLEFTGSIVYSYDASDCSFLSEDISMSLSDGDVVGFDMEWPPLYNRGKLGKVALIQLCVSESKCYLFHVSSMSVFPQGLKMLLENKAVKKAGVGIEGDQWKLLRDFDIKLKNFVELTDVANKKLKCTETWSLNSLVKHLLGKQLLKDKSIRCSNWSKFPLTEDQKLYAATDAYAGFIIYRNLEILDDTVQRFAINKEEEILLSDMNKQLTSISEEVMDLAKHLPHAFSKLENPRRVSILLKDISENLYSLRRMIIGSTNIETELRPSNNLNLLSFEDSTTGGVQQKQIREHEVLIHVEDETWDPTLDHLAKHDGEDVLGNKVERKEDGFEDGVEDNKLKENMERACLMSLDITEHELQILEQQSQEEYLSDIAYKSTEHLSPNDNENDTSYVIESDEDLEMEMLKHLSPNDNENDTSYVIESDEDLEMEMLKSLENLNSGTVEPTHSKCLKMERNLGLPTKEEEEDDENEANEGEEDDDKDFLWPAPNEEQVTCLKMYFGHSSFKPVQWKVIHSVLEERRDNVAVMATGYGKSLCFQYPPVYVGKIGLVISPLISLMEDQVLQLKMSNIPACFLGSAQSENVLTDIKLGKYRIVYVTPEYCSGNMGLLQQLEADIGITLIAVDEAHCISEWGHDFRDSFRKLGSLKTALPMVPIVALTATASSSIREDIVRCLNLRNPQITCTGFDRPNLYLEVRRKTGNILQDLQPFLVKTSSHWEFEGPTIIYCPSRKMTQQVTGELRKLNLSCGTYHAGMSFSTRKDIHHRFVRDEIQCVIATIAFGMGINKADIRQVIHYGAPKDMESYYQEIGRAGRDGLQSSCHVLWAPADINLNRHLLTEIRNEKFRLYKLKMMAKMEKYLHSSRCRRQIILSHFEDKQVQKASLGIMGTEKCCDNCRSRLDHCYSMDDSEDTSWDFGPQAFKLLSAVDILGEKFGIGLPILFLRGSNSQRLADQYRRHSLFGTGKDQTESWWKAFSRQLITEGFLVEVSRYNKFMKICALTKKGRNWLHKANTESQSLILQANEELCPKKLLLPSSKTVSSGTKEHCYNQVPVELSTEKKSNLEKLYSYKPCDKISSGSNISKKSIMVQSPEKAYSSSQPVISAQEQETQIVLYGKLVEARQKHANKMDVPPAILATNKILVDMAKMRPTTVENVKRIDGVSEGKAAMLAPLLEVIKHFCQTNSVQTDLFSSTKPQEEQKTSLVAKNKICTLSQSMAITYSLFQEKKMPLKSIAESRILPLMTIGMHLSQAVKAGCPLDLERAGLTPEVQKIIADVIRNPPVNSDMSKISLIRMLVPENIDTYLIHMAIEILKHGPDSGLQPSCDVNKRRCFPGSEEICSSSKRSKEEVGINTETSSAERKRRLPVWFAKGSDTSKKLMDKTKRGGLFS

- IC50: 230 nM
Compound: CC(C)(CN1C(=O)C(Cl)=C(Cl)C1=O)CN1C(=O)C(Cl)=C(Cl)C1=O [NSC 617145]
